biological target: T1, Recombinant human His-tagged Trim24-PHD-bromodomain (Homo sapiens, UniProt O15164); test: Trim24 AlphaScreen Assay; assay type: binding; conditions: 5 nM Trim24 protein, 15 nM biotinylated H3K23ac (1-33aa) peptide
T1 construct: Recombinant human His-tagged Trim24-PHD-bromodomain (produced in-house); made in house
T1 sequence (O15164 824-1006 limits assumed): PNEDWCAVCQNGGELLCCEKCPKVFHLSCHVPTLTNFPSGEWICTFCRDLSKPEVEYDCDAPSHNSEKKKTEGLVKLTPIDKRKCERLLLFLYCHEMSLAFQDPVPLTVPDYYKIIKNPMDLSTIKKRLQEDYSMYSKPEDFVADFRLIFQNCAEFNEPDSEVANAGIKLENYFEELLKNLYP
Procedure, shortened: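 His-tagged Trim24-PHD-bromodomain, biotinylated H3K23ac (1-33aa) peptide and compound incubated 1 h at room temperature in 50 mM Hepes pH 7.5, 100 mM NaCl, 0.12 mM Triton X-100.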

IC50 [nM] | SMILES
10 to 100 | COc1ccc(S(=O)(=O)Nc2cc3c(cc2Oc2cc(OCCCCCCN)cc(OCC(F)(F)F)c2)n(C)c(=O)n3C)cc1OC [Example 194, N-(6-(3-((6-aminohexyl)oxy)-5-(2,2,2-trifluoroethoxy)phenoxy)-1,3-dimethyl-2-oxo-2,3-dihydro-1H-benzo[d]imidazol-5-yl)-3,4-dimethoxybenzenesulfonamide]
10 to 100 | COCCCOc1cc(OCC(F)(F)F)cc(Oc2cc3c(cc2NS(=O)(=O)c2ccc(OC)c(OC)c2)n(C)c(=O)n3C)c1 [Example 195]
10 to 100 | CCCOc1cc(OCCCCCN)cc(Oc2cc3c(cc2NS(=O)(=O)c2cn(C)cn2)n(C)c(=O)n3C)c1 [Example 197, N-(6-(3-((5-aminopentyl)oxy)-5-propoxyphenoxy)-1,3-dimethyl-2-oxo-2,3-dihydro-1H-benzo[d]imidazol-5-yl)-1-methyl-1H-imidazole-4-sulfonamide]
1 to 10 | Cc1c(S(=O)(=O)Nc2cc3c(cc2Oc2cc(OCCCCCCN)cc(OCC(F)(F)F)c2)n(C)c(=O)n3C)cnn1C [Example 200, N-(6-(3-((6-aminohexyl)oxy)-5-(2,2,2-trifluoroethoxy)phenoxy)-1,3-dimethyl-2-oxo-2,3-dihydro-1H-benzo[d]imidazol-5-yl)-1,5-dimethyl-1H-pyrazole-4-sulfonamide]
1 to 10 | Cn1c(=O)n(C)c2cc(Oc3cc(OCCCCCCN)cc(OCC(F)(F)F)c3)c(NS(=O)(=O)c3cccnc3)cc21 [Example 201, N-(6-(3-((6-aminohexyl)oxy)-5-(2,2,2-trifluoroethoxy)phenoxy)-1,3-dimethyl-2-oxo-2,3-dihydro-1H-benzo[d]imidazol-5-yl)pyridine-3-sulfonamide]
1 to 10 | Cn1cnc(S(=O)(=O)Nc2cc3c(cc2Oc2cc(OCCCCCCN)cc(OCC(F)(F)F)c2)n(C)c(=O)n3C)c1 [Example 202, N-(6-(3-((6-aminohexyl)oxy)-5-(2,2,2-trifluoroethoxy)phenoxy)-1,3-dimethyl-2-oxo-2,3-dihydro-1H-benzo[d]imidazol-5-yl)-1-methyl-1H-imidazole-4-sulfonamide]
10 to 100 | COc1ccc(S(=O)(=O)Nc2cc3c(cc2Oc2cc(OCCCCCCN)cc(OCC(F)(F)F)c2)n(C)c(=O)n3C)cn1 [Example 203, N-(6-(3-((6-aminohexyl)oxy)-5-(2,2,2-trifluoroethoxy)phenoxy)-1,3-dimethyl-2-oxo-2,3-dihydro-1H-benzo[d]imidazol-5-yl)-6-methoxypyridine-3-sulfonamide]
10 to 100 | COCCCOc1cc(OCC(F)(F)F)cc(Oc2cc3c(cc2NS(=O)(=O)c2cnn(C)c2C)n(C)c(=O)n3C)c1 [Example 204, N-(6-(3-(3-methoxypropoxy)-5-(2,2,2-trifluoroethoxy)phenoxy)-1,3-dimethyl-2-oxo-2,3-dihydro-1H-benzo[d]imidazol-5-yl)-1,5-dimethyl-1H-pyrazole-4-sulfonamide]
1 to 10 | COc1ccc(S(=O)(=O)Nc2cc3c(cc2Oc2cc(OCCCCCCN(C)C)cc(OCC(F)(F)F)c2)n(C)c(=O)n3C)cc1OC [Example 205, N-(6-(3-((6-(dimethylamino)hexyl)oxy)-5-(2,2,2-trifluoroethoxy)phenoxy)-1,3-dimethyl-2-oxo-2,3-dihydro-1H-benzo[d]imidazol-5-yl)-3,4-dimethoxybenzenesulfonamide]
10 to 100 | CCCOc1cc(OCCCOC)cc(Oc2cc3c(cc2NS(=O)(=O)c2cn(C)nc2C)n(C)c(=O)n3C)c1 [Example 206, N-(6-(3-(3-methoxypropoxy)-5-propoxyphenoxy)-1,3-dimethyl-2-oxo-2,3-dihydro-1H-benzo[d]imidazol-5-yl)-1,3-dimethyl-1H-pyrazole-4-sulfonamide]
10 to 100 | CCCOc1cc(OCCCOC)cc(Oc2cc3c(cc2NS(=O)(=O)c2cnn(CC)c2)n(C)c(=O)n3C)c1 [Example 207, 1-ethyl-N-(6-(3-(3-methoxypropoxy)-5-propoxyphenoxy)-1,3-dimethyl-2-oxo-2,3-dihydro-1H-benzo[d]imidazol-5-yl)-1H-pyrazole-4-sulfonamide]
10 to 100 | CCCOc1cccc(Oc2cc3c(cc2NS(=O)(=O)c2cccc(C(=O)O)c2)n(C)c(=O)n3C)c1 [Example 208, 3-(N-(1,3-dimethyl-2-oxo-6-(3-propoxyphenxoy)-2,3-dihydro-1H-benzo[d]imidazol-5-yl)sulfamoyl)benzoic acid]
10 to 100 | CCCOc1cc(OCCCCN)cc(Oc2cc3c(cc2NS(=O)(=O)c2cn(C)c(C)n2)n(C)c(=O)n3C)c1 [Example 214]
1 to 10 | Cc1c(S(=O)(=O)Nc2cc3c(cc2Oc2cc(OCCCCCCN(C)C)cc(OCC(F)(F)F)c2)n(C)c(=O)n3C)cnn1C [Example 215, N-(6-(3-((6-(dimethylamino)hexyl)oxy)-5-(2,2,2-trifluoroethoxy)phenoxy)-1,3-dimethyl-2-oxo-2-3,-dihydro-1H-benzo[d]imidazol-5-yl)-1,5-dimethyl-1H-pyrazole-4-sulfonamide]
10 to 100 | CCCOc1cc(OCCCN)cc(Oc2cc3c(cc2NS(=O)(=O)c2ccc(OC)c(OC)c2)n(C)c(=O)n3C)c1 [Example 216, N-(6-(3-(3-aminopropoxy)-5-propoxyphenoxy)-1,3-dimethyl-2-oxo-2,3-dihydro-1H-benzo[d]imidazol-5-yl)-3,4-dimethoxybenzenesulfonamide]
10 to 100 | CCCOc1cc(OCCCCCCN)cc(Oc2cc3c(cc2NS(=O)(=O)C2CC2)n(C)c(=O)n3C)c1 [Example 218, N-(6-(3-((6-aminohexyl)oxy)-5-propoxyphenoxy)-1,3-dimethyl-2-oxo-2,3-dihydro-1H-benzo[d]imidazol-5-yl)cyclopropanesulfonamide]
1 to 10 | CCCOc1cc(OCCCCCCN(C)C)cc(Oc2cc3c(cc2NS(=O)(=O)c2cnn(C)c2C)n(C)c(=O)n3C)c1 [Example 219, N-(6-(3-((6-(dimethylamino)hexyl)oxy)-5-propoxyphenoxy)-1,3-dimethyl-2-oxo-2,3-dihydro-1H-benzo[d]imidazol-5-yl)-1,5-dimethyl-1H-pyrazole-4-sulfonamide]
100 to 1000 | CCCOc1cc(OCCCCCCN)cc(Oc2cc3c(cc2NS(=O)(=O)c2cccc(C(=O)O)c2)n(C)c(=O)n3C)c1 [Example 220, 3-(N-(6-(3-((6-aminohexyl)oxy)-5-propoxyphenoxy)-1,3-dimethyl-2-oxo-2,3-dihydro-1H-benzo[d]imidazol-5-yl)sulfamoyl)benzoic acid]
10 to 100 | COc1ccc(S(=O)(=O)Nc2cc3c(cc2Oc2cccc(OCC(F)(F)F)c2)n(C)c(=O)n3C)cn1 [Example 221, N-(1,3-dimethyl-2-oxo-6-(3-(2,2,2-trifluoroethoxy)phenoxy)-2,3-dihydro-1H-benzo[d]imidazol-5-yl)-6-methoxypyridine-3-sulfonamide]

SMILES | IC50 [nM]
CCCOc1cc(OCCCCN)cc(Oc2cc3c(cc2NS(=O)(=O)c2ccc(OC)c(OC)c2)n(C)c(=O)n3C)c1 [Example 196, N-(6-(3-(4-aminobutoxy)-5-propoxyphenoxy)-1,3-dimethyl-2-oxo-2,3-dihydro-1H-benzo[d]imidazol-5-yl)-3,4-dimethoxybenzenesulfonamide] | 1 to 10
CCCOc1cc(OCCCCN)cc(Oc2cc3c(cc2NS(=O)(=O)c2ccccn2)n(C)c(=O)n3C)c1 [Example 198, N-(6-(3-(4-aminobutoxy)-5-propoxyphenoxy)-1,3-dimethyl-2-oxo-2,3-dihydro-1H-benzo[d]imidazol-5-yl)pyridine-2-sulfonamide] | 10 to 100
CCCOc1cc(OCCCCN)cc(Oc2cc3c(cc2NS(=O)(=O)c2cnn(C)c2C)n(C)c(=O)n3C)c1 [Example 199, N-(6-(3-(4-aminobutoxy)-5-propoxyphenoxy)-1,3-dimethyl-2-oxo-2,3-dihydro-1H-benzo[d]imidazol-5-yl)-1,5-dimethyl-1H-pyrazole-4-sulfonamide] | 10 to 100
Cc1c(S(=O)(=O)Nc2cc3c(cc2Oc2cc(OCCCCN)cc(OCC(F)(F)F)c2)n(C)c(=O)n3C)cnn1C [Example 209, N-(6-(3-(4-aminobutoxy)-5-(2,2,2-trifluoroethoxy)phenoxy)-1,3-dimethyl-2-oxo-2,3-dihydro-1H-benzo[d]imidazol-5-yl)-1,5-dimethyl-1H-pyrazole-4-sulfonamide] | 1 to 10
COc1ccc(S(=O)(=O)Nc2cc3c(cc2Oc2cc(OCCCCN)cc(OCC(F)(F)F)c2)n(C)c(=O)n3C)cc1OC [Example 210, N-(6-(3-(4-aminobutoxy)-5-(2,2,2-trifluoroerthoxy)phenoxy)-1,3-dimethyl-2-oxo-2,3-dihydro-1H-benzo[d]imidazol-5-yl)-3,4-dimethoxybenzenesulfonamide] | 10 to 100
COc1ccc(S(=O)(=O)Nc2cc3c(cc2Oc2cc(OCCCCN(C)C)cc(OCC(F)(F)F)c2)n(C)c(=O)n3C)cc1OC [Example 211, N-(6-(3-(4-(dimethylamino)butoxy)-5-(2,2,2-trifluoroethoxy)phenoxy)-1,3-dimethyl-2-oxo-2,3-dihydro-1H-benzo[d]imidazol-5-yl)-3,4-dimethoxybenzenesulfonamide] | 1 to 10
Cc1c(S(=O)(=O)Nc2cc3c(cc2Oc2cc(OCCCCN(C)C)cc(OCC(F)(F)F)c2)n(C)c(=O)n3C)cnn1C [Example 212, N-(6-(3-(4-(dimethylamino)butoxy)-5-(2,2,2-trifluoroethoxy)phenoxy)-1,3-dimethyl-2-oxo-2,3-dihydro-1H-benzo[d]imidazol-5-yl)-1,5-dimethyl-1H-pyrazole-4-sulfonamide] | 1 to 10
CCCOc1cc(OCCCCN(C)C)cc(Oc2cc3c(cc2NS(=O)(=O)c2cnn(C)c2C)n(C)c(=O)n3C)c1 [Example 217, N-(6-(3-(4-(dimethylamino)butoxy)-5-propoxyphenoxy)-1,3-dimethyl-2-oxo-2,3-dihydro-1H-benzo[d]imidazol-5-yl)-1,5-dimethyl-1H-pyrazole-4-sulfonamide] | 10 to 100

Source: US20160060260A1, “BROMODOMAIN INHIBITORS FOR TREATING DISEASE” (Board of Regents, The University of Texas System, priority 2014, published 2016)
